Data on 62 compounds can be found in patent US20230009608A1, “GRK2 INHIBITORS AND USES THEREOF” (Cygnal Therapeutics, Inc., priority 2020, published 2023).

The target of the first test is T1, GRK2 (Homo sapiens, UniProt P25098).
T1 construct: purchased SignalChem A14-10G
T1 sequence (P25098 1-689): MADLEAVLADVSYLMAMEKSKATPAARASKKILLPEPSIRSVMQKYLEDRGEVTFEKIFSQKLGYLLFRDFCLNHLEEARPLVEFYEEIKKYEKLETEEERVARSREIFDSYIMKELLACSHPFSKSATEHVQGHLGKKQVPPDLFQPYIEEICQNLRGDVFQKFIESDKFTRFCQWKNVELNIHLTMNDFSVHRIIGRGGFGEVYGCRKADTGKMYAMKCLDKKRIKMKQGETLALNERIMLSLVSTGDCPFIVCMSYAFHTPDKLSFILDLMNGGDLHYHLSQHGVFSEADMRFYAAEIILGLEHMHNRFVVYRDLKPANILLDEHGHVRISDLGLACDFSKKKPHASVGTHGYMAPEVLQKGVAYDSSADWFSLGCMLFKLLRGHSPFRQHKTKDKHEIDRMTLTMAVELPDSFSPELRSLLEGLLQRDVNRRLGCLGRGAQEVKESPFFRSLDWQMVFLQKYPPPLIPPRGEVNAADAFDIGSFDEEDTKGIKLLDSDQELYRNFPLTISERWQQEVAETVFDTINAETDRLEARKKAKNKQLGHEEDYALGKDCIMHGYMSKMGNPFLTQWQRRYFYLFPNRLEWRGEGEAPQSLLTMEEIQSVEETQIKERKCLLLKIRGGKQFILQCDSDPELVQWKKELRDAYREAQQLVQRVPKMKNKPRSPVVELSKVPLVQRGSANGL
The test can be described thus: ADPGlo GRK2 Inhibition Assay (Example 8). The following applies: ADPGlo GRK2 enzyme assay; read-out: A: Enzymatic GRK2: IC50 (nM) (Example 8). The format is biochemical. As for the experimental part: HTS was performed using 1 μM compound.
Compounds were dissolved in 100% DMSO, serially diluted tree-fold from 100 μM concentration to 46 nM and transferred (50 nL) into assay ready plate.
Materials: GRK2 was purchased from SignalChem (Cat #A14-10G, Lot #X^645-3). Substrate GRKtide was from SignalChem (Cat #G46-58, Lot #R339-6). ADP-Glo Kinase Assay from Promega (Cat #V9102). Assay buffer consisted of 25 mMv HEPES (pH7.5), 10 mMv MgCl2, 0.01% Tween-20, 1 mM DDT. 384-well white plates were from Greiner […] (Item #784075).
HTS protocol: Take 384 well plate with 50 nL of compound in columns 3-22/DMSO solution 1-2,23-24. Add 2.5 μL assay buffer to columns 23 and 24 using Thermo Scientific Multidrop Combi Dispenser. Add 2.5 μL of 2× enzyme solution (15 nM in 1× assay buffer) using Thermo Scientific Multidrop Combi Reagent Dispenser to all columns except of 23 and 24. Incubate for 15 minutes. Fill plate with 2.5 μL of 2× substrate mix (20 μM ATP and 0.6 mg/nt GRKtide in Ix assay buffer) using Thermo Scientific Multidrop Combi Reagent Dispenser. Spin 15 seconds at 1000 rpm and incubate for 180 min at room temperature. Add 5 μL ADP-Glo reagent to all the wells. Spin 15 seconds at 1000 rpm and incubate for 40 min at room temperature. Add 10 μL Detection solution to all the wells. Incubate for 30 min at room temperature. Read plate in Luminescent modeon BMG PheraStar FSX (gain=3600).
Data Analysis: Data were analyzed in GraphPad Prism 8.0.2. Each HTS plate contains compounds in columns 3-22, controls (enzyme, no compound) in columns 1 and 2, and blanks (no enzyme) in columns 23 and 24. HTS percent inhibition was calculated for each compound from the signal in luminescence units and the mean of the plate controls and the mean of the plate blanks using the following equation: % Inhibition=100*(1−((signal-blank mean)/(control mean-blank mean))). At the final stage of data processing, we obtain dose-response curves, tables and SDF-files with the results of screening for each substance.
As to `Cn1c(CNc2cccc(C(=O)NCc3ccccc3OCCN3CCOCC3)c2)nnc1-c1ccncn1`, the concentration for half-maximal inhibition (IC50) (in general, the point on the concentration scale where inhibition reaches its midpoint) came out at 145 nM.

As to `Cc1ccccc1C(CN1CCOCC1)NC(=O)c1cccc(NCc2nnc(-c3ccncn3)n2C)c1` (centres unmarked), the half-maximal inhibitory concentration (IC50) was 505 nM.

Take `COc1cccc2c1CCC2(CO)NC(=O)c1cccc(NCc2cnc(-c3ccncn3)n2C)c1` (centres unmarked): the half-maximal inhibitory concentration (IC50) amounted to 134 nM.

Turning to `Cn1c(CNc2cccc(C(=O)NC3(CO)CCc4ccccc43)c2)cnc1-c1ccncn1` (centres unmarked), the concentration for half-maximal inhibition (IC50) was found to be 929 nM.

As to `Cn1c(CNc2cccc(C(=O)NC3(CO)CCCc4ccccc43)c2)nnc1-c1ccncn1` (centres unmarked), the 50% inhibitory concentration (IC50) was found to be 651 nM.

Regarding `Cn1c(CNc2cccc(C(=O)NC3(CO)CCOc4ccccc43)c2)nnc1-c1ccncn1` (centres unmarked), the 50% inhibitory concentration (IC50) was determined as 283 nM.

Regarding `CN1CCc2ccccc2C(NC(=O)c2cccc(NCc3nnc(-c4ccncn4)n3C)c2)C1=O` (centres unmarked), the half-maximal inhibitory concentration (IC50) is 253 nM.

`Cn1c(CNc2cccc(C(=O)NC3CCCc4[nH]c(=O)ccc43)c2)nnc1-c1ccncn1` (centres unmarked): the IC50 stood at 392 nM.

`Cn1c(CNc2cccc(C(=O)NC3CCCS(=O)(=O)c4ccccc43)c2)nnc1-c1ccncn1` (centres unmarked): the half-maximal inhibitory concentration (IC50) was 194 nM.

Turning to `Cn1c(CNc2cccc(C(=O)NC3CNCCc4ccccc43)c2)nnc1-c1ccncn1` (centres unmarked), the half-maximal inhibitory concentration (IC50) was 142 nM.

Take `CN1CCN(Cc2ccccc2CNC(=O)c2cccc(NCc3nnc(-c4ccncn4)n3C)c2)CC1`: the half-maximal inhibitory concentration (IC50) came out at 159 nM.

Consider `Cn1c(CNc2cccc(C(=O)NCc3cccnc3-n3cncn3)c2)nnc1-c1ccncn1`, for which the half-maximal inhibitory concentration (IC50) was determined as 119 nM.

For `CNc1cccnc1CNC(=O)c1cccc(NCc2nnc(-c3ccncn3)n2C)c1`, the IC50 was determined as 133 nM.

On to `Cn1c(CNc2cccc(C(=O)NCc3ncccc3S(C)(=O)=O)c2)nnc1-c1ccncn1`, for which the IC50 stood at 172 nM.

On to `COc1cccc(CCNC(=O)c2cccc(NCc3nnc(-c4ccncn4)n3C)c2)c1`, for which the half-maximal inhibitory concentration (IC50) was 340 nM.

As to `Cn1c(CNc2cccc(C(=O)NCc3cnn(C(C)(C)C)c3)c2)nnc1-c1ccncn1`, the IC50 was 135 nM.

On to `C[C@H](NC(=O)c1cccc(NCc2nnc(-c3ccncn3)n2C)c1)c1ccc(Cl)cn1`, for which the concentration for half-maximal inhibition (IC50) worked out at 950 nM.

Turning to `COc1ccc([C@H](C)NC(=O)c2cccc(NCc3nnc(-c4ccncn4)n3C)c2)cc1`, the IC50 was 593 nM.

Take `Cn1c(CNc2cccc(C(=O)NCc3ccc(CO)c(F)c3)c2)nnc1-c1ccncn1`: the 50% inhibitory concentration (IC50) worked out at 103 nM.

In the case of `Cn1c(CNc2cccc(C(=O)NCc3ccc(O)nc3)c2)nnc1-c1ccncn1`, the IC50 was determined as 203 nM.

Consider `Cn1c(CNc2cccc(C(=O)NCC3(c4ccccn4)CC3)c2)nnc1-c1ccncn1`, for which the 50% inhibitory concentration (IC50) stood at 526 nM.

In the case of `Cc1c[nH]c(=O)c(CNC(=O)c2cccc(NCc3nnc(-c4ccncn4)n3C)c2)c1`, the half-inhibitory concentration (IC50) was greater than 1000 nM.

For the compound `Cn1c(CNc2cccc(C(=O)NCc3cc4n(n3)CCC4)c2)nnc1-c1ccncn1`, the IC50 was greater than 1000 nM.

On to `CCc1ccc(CNC(=O)c2cccc(NCc3nnc(-c4ccncn4)n3C)c2)nc1`, for which the IC50 is 271 nM.

With `Cn1c(CNc2cccc(C(=O)NCc3ccc(O)c(F)c3)c2)nnc1-c1ccncn1`, the half-maximal inhibitory concentration (IC50) amounted to 118 nM.

On to `Cc1cnc(CCNC(=O)c2cccc(NCc3nnc(-c4ccncn4)n3C)c2)c(C)c1`, for which the half-inhibitory concentration (IC50) came out at 432 nM.

Consider `Cc1ccc(CNC(=O)c2cccc(NCc3nnc(-c4ccncn4)n3C)c2)nc1C`, for which the half-maximal inhibitory concentration (IC50) turned out to be 182 nM.

For `Cn1c(CNc2cccc(C(=O)NC3(c4ncc[nH]4)CC3)c2)nnc1-c1ccncn1`, the IC50 came to 748 nM.

`COc1ccc(CNC(=O)c2cccc(NCc3nnc(-c4ccncn4)n3C)c2)cc1`: the 50% inhibitory concentration (IC50) came to 913 nM.

For `Cn1c(CNc2cccc(C(=O)NC3CCn4nccc4C3)c2)nnc1-c1ccncn1` (centres unmarked), the IC50 amounted to 133 nM.

Turning to `CC(Cc1ccccn1)NC(=O)c1cccc(NCc2nnc(-c3ccncn3)n2C)c1` (centres unmarked), the IC50 came to 290 nM.

Turning to `Cn1c(CNc2cccc(C(=O)NC(C)(CO)c3ccccn3)c2)nnc1-c1ccncn1` (centres unmarked), the IC50 stood at 511 nM.

On to `Cn1c(CNc2cccc(C(=O)NC(CO)c3ccccn3)c2)nnc1-c1ccncn1` (centres unmarked), for which the IC50 worked out at 177 nM.

As to `Cn1c(CNc2cccc(C(=O)NC3CCCn4nccc43)c2)nnc1-c1ccncn1` (centres unmarked), the IC50 is 171 nM.

Consider `CC(Cc1nccn1C)NC(=O)c1cccc(NCc2nnc(-c3ccncn3)n2C)c1` (centres unmarked), for which the IC50 came to 732 nM.

Turning to `Cn1c(CNc2cccc(C(=O)NCC3Cc4ccccc4O3)c2)nnc1-c1ccncn1` (centres unmarked), the IC50 amounted to 208 nM.

For `CCn1ccnc1C(C)NC(=O)c1cccc(NCc2nnc(-c3ccncn3)n2C)c1` (centres unmarked), the half-inhibitory concentration (IC50) came to 189 nM.

Consider `CC(C)C(NC(=O)c1cccc(NCc2nnc(-c3ccncn3)n2C)c1)c1nccn1C` (centres unmarked), for which the IC50 turned out to be 152 nM.

Consider `Cc1nc2c(c(C)c1CNC(=O)c1cccc(NCc3nnc(-c4ccncn4)n3C)c1)c(=O)[nH]n2C`, for which the half-maximal inhibitory concentration (IC50) is 181 nM.

`Cn1c(CNc2cccc(C(=O)NC3CCCc4c3ccc(=O)n4C)c2)nnc1-c1ccncn1` (centres unmarked): the IC50 is greater than 1000 nM.

Take `CN1CCN(S(=O)(=O)c2ccccc2CNC(=O)c2cccc(NCc3nnc(-c4ccncn4)n3C)c2)CC1`: the IC50 was 344 nM.

For the compound `COc1ccc([C@H](C)NC(=O)c2cccc(NCc3nnc(-c4ccncn4)n3C)c2)c(OC)c1`, the IC50 was determined as 310 nM.

In the case of `COc1ccc([C@@H](C)NC(=O)c2cccc(NCc3nnc(-c4ccncn4)n3C)c2)c(OC)c1`, the concentration for half-maximal inhibition (IC50) was 8.56 nM.

As to `COc1ccccc1[C@H](NC(=O)c1cccc(NCc2nnc(-c3ccncn3)n2C)c1)c1noc(C)n1`, the IC50 came to 741 nM.

As to `COc1ccccc1[C@@H](NC(=O)c1cccc(NCc2nnc(-c3ccncn3)n2C)c1)c1noc(C)n1`, the IC50 was found to be 333 nM.

Regarding `CCCCCOc1ccc2c(c1)[C@H](NC(=O)c1cccc(NCc3nnc(-c4ccncn4)n3C)c1)CCO2`, the IC50 stood at 732 nM.

Consider `CCCCCOc1ccc2c(c1)[C@H](NC(=O)c1cccc(NCc3nnc(-c4ccncn4)n3C)c1)CO2`, for which the half-inhibitory concentration (IC50) amounted to 550 nM.

On to `C[C@@H](NC(=O)c1cccc(NCc2nnc(-c3ccncc3)n2CCO)c1)c1ncccc1Cl`, for which the concentration for half-maximal inhibition (IC50) stood at 11.9 nM.

Consider `Cn1c(CNc2cc(C(=O)N[C@@H]3COCc4ccccc43)ccn2)nnc1-c1ccncn1`, for which the IC50 is 18.7 nM.

`CNS(=O)(=O)c1cccc(F)c1CNC(=O)c1ccnc(NCc2nnc(-c3ccncn3)n2C)c1`: the 50% inhibitory concentration (IC50) amounted to 15.1 nM.

On to `Cn1c(CNc2cc(C(=O)N[C@@H]3COc4cc(F)ccc43)ccn2)nnc1-c1ccncn1`, for which the IC50 worked out at 37.5 nM.

As for `Cc1cccnc1CNC(=O)c1cccc(NCc2nnc(-c3ccncc3F)n2C)c1`, the IC50 is 312 nM.

With `Cn1c(CNc2cccc(C(=O)NCc3ccncc3Cl)c2)nnc1-c1ccncc1F`, the IC50 is 31.9 nM.

Turning to `Cc1cc2c(cc1CNC(=O)c1cccc(NCc3nnc(-c4ccncc4F)n3C)c1)OCCO2`, the IC50 turned out to be 8 nM.

For the compound `C#COc1ccc(C(=O)c2ccc(OCCCCC(=O)NCCOCCOCCOc3cccc(CNC(=O)c4cccc(NCc5nnc(-c6ccncn6)n5C)c4)c3)cc2)cc1`, the concentration for half-maximal inhibition (IC50) is greater than 1000 nM.

The same test, now with this note: Enzyme Assay A, ADPGlo (Example 8); read-out: A: Enzymatic GRK2: IC50 (nM) (Example 8).
In the case of `Cc1ncsc1CNC(=O)c1cccc(NCc2nnc(-c3ccncn3)n2C)c1`, the IC50 came to 16 nM.

On to `Cc1cccc([C@H](C)NC(=O)c2cccc(NCc3nnc(-c4ccncn4)n3C)c2)n1`, for which the half-inhibitory concentration (IC50) came out at 95 nM.

`COc1ccc2c(c1)[C@@H](NC(=O)c1cccc(NCc3nnc(-c4ccncn4)n3C)c1)CCO2`: the IC50 was greater than 1000 nM.

`Cn1c(CNc2cccc(C(=O)N[C@@H]3COCc4ccccc43)c2)nnc1-c1ccncc1`: the 50% inhibitory concentration (IC50) amounted to 201 nM.

Consider `Cn1c(CNc2cccc(C(=O)N[C@H]3COCc4ccccc43)c2)nnc1-c1ccncc1`, for which the IC50 was 100 nM.

On to `Cn1c(CNc2cccc(C(=O)N[C@@H]3COc4cc(F)ccc43)c2)nnc1-c1ccncc1`, for which the IC50 was found to be 143 nM.

On to `COc1cccc([C@H](C)NC(=O)c2cccc(NCc3nnc(-c4ccncc4)n3C)c2)c1`, for which the IC50 amounted to 117 nM.
